Measurements taken from patent US11566022B2, “3-(5-methoxy-1-oxoisoindolin-2-yl)piperidine-2,6-dione derivatives and uses thereof” (NOVARTIS AG, priority 2019, dated 2023).
Read-outs that look alike come from different tables or passages of the source.

How the values were obtained:
[1] = SCD, current standard of care; cited from earlier work
HiBit-WIZ fusion protein = HiBit-WIZ fusion protein (Homo sapiens, UniProt O95785+Q96SW2); assay: Quantification of WIZ protein levels in HiBit tag fusion protein assay (WIZ HiBit assay in 293T cells); type: cell-based; design: Dmax: dose or concentration left out as unconfirmed; conditions: for Dmax / remaining activity at up to 25 µM / remaining activity: HEK-293T, 293T cells; for remaining activity at up to 25 µM: DMSO-normalized, curve-fitted percentage of WIZ-HiBit remaining at 25 uM, read-out: WIZ Amax; for DC50: WIZ HiBit assay in 293T cells, 10-point, 5-fold dose response, highest concentration 25 μM, about 18 hours, read-out: WIZ AC50; for remaining activity: read-out: WIZ Amax, DMSO-normalized, curve-fitted percentage of WIZ-HiBit remaining at 25 uM
Chain of HiBit-WIZ fusion protein (O95785 whole entry, the tested form may be a part): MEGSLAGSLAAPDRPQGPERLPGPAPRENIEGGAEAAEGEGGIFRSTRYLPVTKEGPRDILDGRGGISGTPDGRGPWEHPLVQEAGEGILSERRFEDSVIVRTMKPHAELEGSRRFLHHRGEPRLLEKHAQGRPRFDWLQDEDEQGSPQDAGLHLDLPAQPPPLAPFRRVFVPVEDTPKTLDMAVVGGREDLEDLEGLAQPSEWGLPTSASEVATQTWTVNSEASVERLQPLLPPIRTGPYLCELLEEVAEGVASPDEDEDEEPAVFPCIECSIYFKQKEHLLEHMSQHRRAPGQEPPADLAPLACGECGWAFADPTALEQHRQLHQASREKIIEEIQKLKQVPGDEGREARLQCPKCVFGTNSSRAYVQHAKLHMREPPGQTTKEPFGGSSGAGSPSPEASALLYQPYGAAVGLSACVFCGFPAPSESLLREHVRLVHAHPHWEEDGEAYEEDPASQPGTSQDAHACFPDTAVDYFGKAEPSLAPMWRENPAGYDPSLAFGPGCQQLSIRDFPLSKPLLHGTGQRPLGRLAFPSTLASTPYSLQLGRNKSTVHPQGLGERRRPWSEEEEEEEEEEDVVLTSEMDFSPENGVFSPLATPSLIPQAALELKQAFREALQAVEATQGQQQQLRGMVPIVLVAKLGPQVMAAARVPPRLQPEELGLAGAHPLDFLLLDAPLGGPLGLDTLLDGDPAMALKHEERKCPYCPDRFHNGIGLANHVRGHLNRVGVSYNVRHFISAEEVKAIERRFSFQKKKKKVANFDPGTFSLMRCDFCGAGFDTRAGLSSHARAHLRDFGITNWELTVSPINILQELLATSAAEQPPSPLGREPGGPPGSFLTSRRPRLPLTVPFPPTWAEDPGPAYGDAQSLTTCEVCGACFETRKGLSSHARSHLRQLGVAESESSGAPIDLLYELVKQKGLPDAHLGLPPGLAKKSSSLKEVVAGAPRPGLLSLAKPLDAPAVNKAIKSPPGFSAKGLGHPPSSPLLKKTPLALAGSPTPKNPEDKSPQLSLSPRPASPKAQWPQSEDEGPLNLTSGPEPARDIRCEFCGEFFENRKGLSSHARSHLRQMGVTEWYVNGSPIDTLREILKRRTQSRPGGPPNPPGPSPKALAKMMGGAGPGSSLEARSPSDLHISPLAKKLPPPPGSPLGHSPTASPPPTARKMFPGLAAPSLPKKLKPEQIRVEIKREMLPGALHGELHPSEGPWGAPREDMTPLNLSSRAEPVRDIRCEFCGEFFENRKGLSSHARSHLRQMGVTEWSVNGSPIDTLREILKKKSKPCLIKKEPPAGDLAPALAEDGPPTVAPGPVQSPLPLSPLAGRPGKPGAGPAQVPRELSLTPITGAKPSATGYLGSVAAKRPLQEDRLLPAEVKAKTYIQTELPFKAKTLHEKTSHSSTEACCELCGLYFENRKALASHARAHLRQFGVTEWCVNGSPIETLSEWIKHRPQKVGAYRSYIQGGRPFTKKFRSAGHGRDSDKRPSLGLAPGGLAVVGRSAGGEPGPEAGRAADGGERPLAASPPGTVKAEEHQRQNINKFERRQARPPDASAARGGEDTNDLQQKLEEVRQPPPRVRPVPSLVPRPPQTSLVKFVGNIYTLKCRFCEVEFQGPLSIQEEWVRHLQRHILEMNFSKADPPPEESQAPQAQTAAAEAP
Chain of HiBit-WIZ fusion protein (Q96SW2 whole entry, the tested form may be a part): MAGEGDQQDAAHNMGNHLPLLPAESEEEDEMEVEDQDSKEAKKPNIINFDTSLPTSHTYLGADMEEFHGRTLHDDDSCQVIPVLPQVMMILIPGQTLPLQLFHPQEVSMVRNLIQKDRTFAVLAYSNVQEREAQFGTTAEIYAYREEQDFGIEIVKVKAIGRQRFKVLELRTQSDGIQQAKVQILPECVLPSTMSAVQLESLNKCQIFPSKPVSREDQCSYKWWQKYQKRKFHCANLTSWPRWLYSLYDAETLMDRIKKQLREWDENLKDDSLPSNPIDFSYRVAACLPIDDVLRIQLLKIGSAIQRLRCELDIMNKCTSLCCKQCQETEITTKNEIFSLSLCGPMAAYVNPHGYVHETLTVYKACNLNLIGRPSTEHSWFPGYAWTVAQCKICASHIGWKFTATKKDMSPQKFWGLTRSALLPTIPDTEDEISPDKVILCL
Chain of HiBit-WIZ fusion protein (Q16531 whole entry partner, the tested form may be a part): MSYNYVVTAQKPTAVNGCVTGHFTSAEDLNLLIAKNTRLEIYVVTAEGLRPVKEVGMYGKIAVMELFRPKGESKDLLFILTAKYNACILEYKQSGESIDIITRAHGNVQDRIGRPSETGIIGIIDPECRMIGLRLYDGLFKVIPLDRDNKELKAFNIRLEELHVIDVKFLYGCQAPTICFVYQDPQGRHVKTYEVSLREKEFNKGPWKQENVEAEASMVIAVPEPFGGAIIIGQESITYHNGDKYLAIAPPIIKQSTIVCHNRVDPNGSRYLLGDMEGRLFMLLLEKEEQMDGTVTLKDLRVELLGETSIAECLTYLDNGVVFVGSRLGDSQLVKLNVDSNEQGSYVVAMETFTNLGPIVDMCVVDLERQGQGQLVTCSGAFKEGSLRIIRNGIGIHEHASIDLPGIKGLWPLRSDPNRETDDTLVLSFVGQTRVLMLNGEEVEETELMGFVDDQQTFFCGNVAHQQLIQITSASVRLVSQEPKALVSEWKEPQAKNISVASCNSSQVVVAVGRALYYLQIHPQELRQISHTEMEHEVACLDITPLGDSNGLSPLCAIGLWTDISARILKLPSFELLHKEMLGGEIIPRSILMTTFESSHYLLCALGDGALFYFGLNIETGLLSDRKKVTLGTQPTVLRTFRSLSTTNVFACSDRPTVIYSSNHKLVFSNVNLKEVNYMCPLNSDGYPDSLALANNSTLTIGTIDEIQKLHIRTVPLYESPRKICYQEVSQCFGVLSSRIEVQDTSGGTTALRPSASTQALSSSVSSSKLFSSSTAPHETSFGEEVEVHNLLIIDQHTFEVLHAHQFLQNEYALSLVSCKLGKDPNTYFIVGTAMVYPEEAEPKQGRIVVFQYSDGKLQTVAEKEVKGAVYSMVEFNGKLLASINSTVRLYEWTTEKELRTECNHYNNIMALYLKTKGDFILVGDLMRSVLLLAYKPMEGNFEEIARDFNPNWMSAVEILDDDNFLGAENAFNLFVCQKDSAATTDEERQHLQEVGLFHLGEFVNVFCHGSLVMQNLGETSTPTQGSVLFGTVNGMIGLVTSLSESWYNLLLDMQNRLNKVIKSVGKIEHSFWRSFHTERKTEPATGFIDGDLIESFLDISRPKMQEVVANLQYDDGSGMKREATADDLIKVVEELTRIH

[2] = 100 minus Amax, read-out: % degradation of WIZ (100-Amax)
[3] = read-out: % degradation of WIZ (100-Amax), 100 minus Amax

Row | Structure (SMILES) | response rate [1] | Dmax (HiBit-WIZ fusion protein; [2]) | remaining activity at up to 25 µM (HiBit-WIZ fusion protein) | DC50 (HiBit-WIZ fusion protein) | Dmax (HiBit-WIZ fusion protein; [3]) | remaining activity (HiBit-WIZ fusion protein)
1 | NC(=O)NO [Hydroxyurea] | less than 40% |  |  |  |  | 
2 | CC(C)(C)OC(=O)NC1(CN2CCCC[C@@H]2COc2ccc3c(c2)CN(C2CCC(=O)NC2=O)C3=O)CCCC1 (stereo partly shown) [Compound I-50cf] |  | 38.1% | 61.9% | > 25000 nM |  | 
3 | O=C1CCC(N2Cc3cc(OC[C@@H]4CCCCN4Cc4cccc(Cn5cccn5)c4)ccc3C2=O)C(=O)N1 (stereo partly shown) [Compound I-50bz] |  | 85.2% | 14.8% | 172 nM |  | 
4 | O=C1CCC(N2Cc3cc(OC[C@@H]4CCCCN4Cc4ccc(C(=O)N5CCCC5)cc4)ccc3C2=O)C(=O)N1 (stereo partly shown) [Compound I-50j] |  | 65.4% | 34.6% | 3490 nM |  | 
5 | O=C1CCC(N2Cc3cc(OC[C@@H]4CCCCN4C(=O)c4cccc(N5CCCCC5)n4)ccc3C2=O)C(=O)N1 (stereo partly shown) [Compound I-72av] |  | 24.3% | 75.7% | > 25000 nM |  | 
6 | O=C1CCC(N2Cc3cc(OC[C@@H]4CCCCN4C(=O)c4csc(-c5ccccc5)n4)ccc3C2=O)C(=O)N1 (stereo partly shown) [Compound I-72du] |  | 23.6% | 76.4% | > 25000 nM |  | 
7 | Cc1nnsc1CN1CCCC[C@@H]1COc1ccc2c(c1)CN(C1CCC(=O)NC1=O)C2=O (stereo partly shown) [Compound I-50ep] |  | 12.4% | 87.6% | > 25000 nM |  | 
8 | CC(C)N1CCC(CN2CCCC[C@@H]2COc2ccc3c(c2)CN(C2CCC(=O)NC2=O)C3=O)CC1 (stereo partly shown) [Compound I-50ea] |  | 81% | 19% | 651 nM |  | 
9 | Cc1n[nH]c(CC(=O)N2CCCC[C@H]2COc2ccc3c(c2)CN(C2CCC(=O)NC2=O)C3=O)n1 (stereo partly shown) [Compound I-72cg] |  | 2.2% | 97.8% | > 25000 nM |  | 
10 | O=C1CCC(N2Cc3cc(OC[C@H]4CCCCN4Cc4cccc5c4OCCO5)ccc3C2=O)C(=O)N1 (stereo partly drawn) [Compound I-135, 3-(5-(((R)-1-((2,3-dihydrobenzo[b][1,4]dioxin-5-yl)methyl)piperidin-2-yl)methoxy)-1-oxoisoindolin-2-yl)piperidine-2,6-dione] |  | 81.8% | 18.2% | 34 nM |  | 
11 | CCN1CCC[C@@H](C(=O)N2CCCC[C@H]2COc2ccc3c(c2)CN(C2CCC(=O)NC2=O)C3=O)C1 (stereo partly shown) [Compound I-72it] |  | 5.9% | 94.1% | > 25000 nM |  | 
12 | O=C1CCC(N2Cc3cc(OC[C@@H]4CCCCN4C(=O)c4cccnc4N4CCCC4)ccc3C2=O)C(=O)N1 (stereo partly shown) [Compound I-72gb] |  | 23.9% | 76.1% | > 25000 nM |  | 
13 | O=C1CCC(N2Cc3cc(OC[C@H]4CCCCN4Cc4ccnc5[nH]ccc45)ccc3C2=O)C(=O)N1 (stereo partly shown) [Compound I-50dk] |  | 87% | 13% | 147 nM |  | 
14 | CCOC(=O)c1cccc2[nH]nc(CN3CCCC[C@H]3COc3ccc4c(c3)CN(C3CCC(=O)NC3=O)C4=O)c12 (stereo partly shown) [Compound I-50au] |  | 24.2% | 75.8% | > 25000 nM |  | 
15 | COc1ccccc1C(=O)N1CCC[C@@H]1COc1ccc2c(c1)CN(C1CCC(=O)NC1=O)C2=O (stereo partly drawn) [Compound I-83, 3-(5-(((R)-1-(2-methoxybenzoyl)pyrrolidin-2-yl)methoxy)-1-oxoisoindolin-2-yl)piperidine-2,6-dione] |  | 16.8% | 83.2% | > 25000 nM |  | 
16 | CC(C)c1cc(C(=O)N2CCCC[C@H]2COc2ccc3c(c2)CN(C2CCC(=O)NC2=O)C3=O)on1 (stereo partly shown) [Compound I-72dp] |  | 30.5% | 69.5% | > 25000 nM |  | 

Row | Structure (SMILES) | response rate [1] | Dmax (HiBit-WIZ fusion protein; [2]) | remaining activity at up to 25 µM (HiBit-WIZ fusion protein) | DC50 (HiBit-WIZ fusion protein) | Dmax (HiBit-WIZ fusion protein; [3]) | remaining activity (HiBit-WIZ fusion protein)
17 | O=C1CCC(N2Cc3cc(OC[C@H]4CCCCN4Cc4cnn(-c5cnccn5)c4)ccc3C2=O)C(=O)N1 (stereo partly shown) [Compound I-50ct] |  | 80.2% | 19.8% | 133 nM |  | 
18 | CCn1cc(C(=O)N2CCCC[C@H]2COc2ccc3c(c2)CN(C2CCC(=O)NC2=O)C3=O)c(C)n1 (stereo partly shown) [Compound I-72gw] |  | 19.1% | 80.9% | > 25000 nM |  | 
19 | CCN(CC)CC(=O)N1CCCC[C@H]1COc1ccc2c(c1)CN(C1CCC(=O)NC1=O)C2=O (stereo partly shown) [Compound I-72cp] |  | 12.1% | 87.9% | > 25000 nM |  | 
20 | O=C1CCC(N2Cc3cc(OC[C@H]4CCCCN4CC4CC5(COC5)C4)ccc3C2=O)C(=O)N1 (stereo partly drawn) [Compound I-104, 3-(5-(((R)-1-((2-oxaspiro[3.3]heptan-6-yl)methyl)piperidin-2-yl)methoxy)-1-oxoisoindolin-2-yl)piperidine-2,6-dione] |  | 87.1% | 12.9% | 540 nM |  | 
21 | COc1ccccc1CN1CCCC[C@@H]1COc1ccc2c(c1)CN(C1CCC(=O)NC1=O)C2=O (stereo partly drawn) [Compound I-133, 3-(5-(((R)-1-(2-methoxybenzyl)piperidin-2-yl)methoxy)-1-oxoisoindolin-2-yl)piperidine-2,6-dione] |  |  |  | 8.8 nM | 83.3% | 16.7%
22 | O=C1CCC(N2Cc3cc(OC[C@H]4CCCCN4CC4CCOC4)ccc3C2=O)C(=O)N1 (single isomer, unassigned) [Compound I-211] |  | 53.9% | 46.1% | 150 nM |  | 
23 | N#Cc1cc(CN2CCCC[C@@H]2COc2ccc3c(c2)CN(C2CCC(=O)NC2=O)C3=O)ccn1 (stereo partly shown) [Compound I-50dn] |  | 21.2% | 78.8% | > 25000 nM |  | 
24 | CC(C)(C)N1CCN(c2ccc(CN3CCCC[C@@H]3COc3ccc4c(c3)CN(C3CCC(=O)NC3=O)C4=O)cc2)CC1 (stereo partly drawn) [Compound I-229, 3-(5-(((R)-1-(4-(4-(tert-butyl)piperazin-1-yl)benzyl)piperidin-2-yl)methoxy)-1-oxoisoindolin-2-yl)piperidine-2,6-dione] |  | 73.5% | 26.6% | 2 nM |  | 
25 | O=C1CCC(N2Cc3cc(OC[C@@H]4CCCCN4C(=O)CCN4CCOCC4)ccc3C2=O)C(=O)N1 (stereo partly shown) [Compound I-72ca] |  | 10.2% | 89.8% | > 25000 nM |  | 
26 | O=C1CCC(N2Cc3cc(OC[C@H]4CCCCN4Cc4ccccc4Cn4cncn4)ccc3C2=O)C(=O)N1 (stereo partly shown) [Compound I-50dd] |  | 39.6% | 60.4% | > 25000 nM |  | 
27 | CCN1CCc2cccc(CN3CCCC[C@@H]3COc3ccc4c(c3)CN(C3CCC(=O)NC3=O)C4=O)c21 (stereo partly drawn) [Compound I-112, 3-(5-(((R)-1-((1-ethylindolin-7-yl)methyl)piperidin-2-yl)methoxy)-1-oxoisoindolin-2-yl)piperidine-2,6-dione] |  |  |  | 59 nM | 96.9% | 3.13%
28 | O=C1CCC(N2Cc3cc(OC[C@H]4CCCCN4Cc4ccnc(N5CCOCC5)c4)ccc3C2=O)C(=O)N1 (stereo partly shown) [Compound I-50dr] |  | 85.5% | 14.5% | 97 nM |  | 
29 | O=C1CCC(N2Cc3cc(OC[C@H]4CCCCN4Cc4ccccc4N4CCCCC4)ccc3C2=O)C(=O)N1 (stereo partly shown) [Compound I-119] |  | 97.4% | 2.56% | 10 nM |  | 
30 | CO[C@H]1C[C@H](CN2CCCC[C@@H]2COc2ccc3c(c2)CN(C2CCC(=O)NC2=O)C3=O)C1 (stereo partly drawn) [Compound I-97, 3-(5-(((R)-1-(((1r,3R)-3-methoxycyclobutyl)methyl)piperidin-2-yl)methoxy)-1-oxoisoindolin-2-yl)piperidine-2,6-dione] |  | 91.8% | 8.17% | 140 nM |  | 
31 | O=C1CCC(N2Cc3cc(OC[C@@H]4CCCCN4Cc4ncc[nH]4)ccc3C2=O)C(=O)N1 (stereo partly shown) [Compound I-50w] |  | 25.9% | 74.1% | > 25000 nM |  | 
